# According to patent US5457092A, “Methods of promoting bone growth in mammals comprising administration of modified parathyroid hormone” (Gesellschaft fur Biotechnologische Forschung mbH (GBF), priority 1987, dated 1995):
# Key:
# [1] = test system: ROS 17/2.8 osteoblast-like cells; test: Cyclic AMP production in ROS 17/2.8 osteoblast-like cells; format: cell-based, rat
# Procedure: When cultures of the widely used model for osteoblasts, the osteoblast-likeclone of rat osteosarcoma, ROS 17/2.8 (Endocrinology (Baltimore), 107 (1980) 1494-1503=12; Majeska et al.), were incubated with full-length PTH and PTH fragments (Table 4), cyclic AMP production was stimulated only by bPTH(1-84) and hPTH(1-34), whereas hPTH(25-39), hPTH(27-48), hPTH(28-48) and hPTH(34-47) were ineffective.
# [2] = test system: chondrocytes from sterna of 16-day-old embryonic chicks; test: Stimulation of DNA synthesis in chondrocytes by PTH fragments (Table 1); format: cell-based, chick; conditions: for [^3 H]thymidine incorporation: 4 h; for E/C: stimulated / non-induced control cells
# Procedure: Chondrocytes were isolated from sterna of 16-day-old embryonic chicks according to J. Biol. Chem., 261 (1986) 7997-8001 (10; Yasui et al.) with some modifications. Collagenase was dissolved in Hanks' balanced salt solution (0.4 mM Na2 HPO4, 140 mN NaCl, 5.3 mM KCl, 0.4 mM MgSO4, 1.3 mM CaCl2, 0.4 mM KH2 PO4, 0.5 mM MglC2, 5 mM glucose, 0.05% gentamicin) at a concentration of 286 units/ml. Sterna were treated repeatedly for 30 min with collagenase solution at 37° C. Cells first released by this procedure were discarded because of their very poor responsiveness towards PTH. The collagenase treatment was subsequently repeated leading to a highly homogenous cell population of chondrocytes. The cells obtained by a second collagenase treatment were collected by centrifugation (1000 rpm, 10 min), washed twice with medium (Dulbecco's modified Eagle's medium, GIBCO, supplemented with NaHCO3 (45 mM), glutamine (2 mM), penicillin G/streptomycin (65 mg/1 and 100 mg/l, respectively), Hepes (10 mM, pH 7.2), and FCS (10% v/v) and counted.
# The DNA synthesis rate was assayed in monolayer culture by the incorporation of ]^3 H]thymidine into perchloric acid-precipitable material. […] After 17 h, the medium was replaced by 200 μl of serum-free medium. After 4 days, chondrocytes were incubated for 4 h with the appropriate effector and 1μ Ci of [^3 H]thymidine. Subsequently, medium was removed and the cells were washed twice with 200 μl of phosphate-buffered saline (PBS: 137 mM NaCl, 2.7 mN KCl, 1.5 mM KH2 PO4, 0.8 mN Na2 HPO4, pH 7.0). Then cells were lysed by 100 μl of 2% (v/v) Nonidet P- 40 and 2% (w/v) sodium dodecyl sulfate treatment and the perchloric acid-insoluble material was precipitated by adding an equal volume of ice-cold 2% (w/v) perchloric acid in the presence of 1% herring sperm DNA as carrier. After storage for 10 min at -20° C., the precipitated material of each well was transferred to glass fiber filters with a Scatron--As semiautomatic cell harvester. Filters were dried at 80° C. for 20 min, transferred into scintillation vials, and 2 ml of scintillation mixture (scintillator 299; United Technology Pachard) were added. Radioactivity of the samples was determined with a β counter (Minimax; United Technology Pachard). Each test consisted of 5 up to 10 identically treated wells and was repeated at least twice with freshly prepared chondrocytes.
# The incorporation of [^3 H]thymidine by non-induced control cells and by stimulated cells is shown by C and E, respectively. The results shown mean ±S.E. for n parallel cell cultures.
# [3] = test system: osteoblast enriched rat embryo calvaria cell cultures; test: Cyclic AMP production in rat embryo calvaria cell cultures; format: cell-based; conditions: 100 nM; 15 min; control 29 ± 2.9 pmol/mg of protein
# Procedure: (§1) FIG. 10 is a graphical representation showing the dose dependent stimulation by bPTH (1-84) of osteoblast enriched rat embryo calvaria cell cultures. Experimental details for the determination of cyclic AMP (.quadrature.) (15 min after stimulation) and incorporation of [^3 H]thymidine into DNA ( ) and CK ( ) specific activity (24 h after stimulation) are given below. The results are means ±S.E.M., N≥5. In several cases the S.E.M. was less than the size of the symbol. Control values were: cyclic AMP, 25±5 pmol/mg of protein; DNA, 240±30 c.p.m./μg of DNA; CK, 200±20 nmol/min per mg of protein. Statistical significance of differences between treated and corresponding control groups by Student's T test: *P<0.05; **P<0.01.
# (§2) Rat calvaria cultures were treated with fragments of PTH derived from the central portion of the molecule.
# [4] = test system: osteoblast enriched rat embryo calvaria cell cultures; test: CK specific activity in rat embryo calvaria cell cultures; format: cell-based; conditions: for CK specific activity, effect of fragment (experimental value/control value): 100 nM, 24 h, control 457 ± 46 nmol/min per mg of protein; for increase of CK activity (in words): treated for 24 h
# Procedure: as §1, §2
# [5] = test system: osteoblast enriched rat embryo calvaria cell cultures; test: DNA synthesis ([3H]thymidine incorporation) in rat embryo calvaria cell cultures; format: cell-based; conditions: 100 nM; 24 h; control 624 ± 73 c.p.m./μg of DNA
# Procedure: as §1
# [6] = test system: ROS 17/2.8 osteoblast-like cells; test: CK specific activity in ROS 17/2.8 osteoblast-like cells; format: cell-based, rat
# [7] = test system: ROS 17/2.8 osteoblast-like cells; test: DNA synthesis in ROS 17/2.8 osteoblast-like cells; format: cell-based, rat
substance,measurement,setting,value
"hPTH(27-48): PTH fragment 27-48 as printed; probably a misprint of hPTH(28-47) (KLQDVHNFVALGAPLAPRDAGS; Parathyroid hormone; UniProt P01270 58-79, looked up, fragment)",stimulation of cyclic AMP production (in words),[1],ineffective
"hPTH(29-47): PTH fragment 29-47, human source (QDVHNFVALGAPLAPRDAG; Parathyroid hormone; UniProt P01270 60-78, looked up, fragment)",[^3 H]thymidine incorporation,"[2]; 4.8 × 10^-5 mol/l, control 139 ± 6",273 ± 30 cpm
same,E/C,[2]; 4.8 × 10^-5 mol/l,1.96
same,[^3 H]thymidine incorporation,"[2]; 4.8 × 10^-6 mol/l, control 139 ± 6",225 ± 20 cpm
same,E/C,[2]; 4.8 × 10^-6 mol/l,1.62
same,[^3 H]thymidine incorporation,"[2]; 4.8 × 10^-7 mol/l, control 139 ± 6",273 ± 33 cpm
same,E/C,[2]; 4.8 × 10^-7 mol/l,1.96
same,[^3 H]thymidine incorporation,"[2]; 4.8 × 10^-8 mol/l, control 139 ± 6",138 ± 15 cpm
same,E/C,[2]; 4.8 × 10^-8 mol/l,0.99
same,"Cyclic AMP concentration, effect of fragment (experimental value/control value)",[3],0.57 ± 0.47
same,"CK specific activity, effect of fragment (experimental value/control value)",[4],1.67 ± 0.13
same,increase of CK activity (in words),[4],stimulatory but to a lesser degree
same,"[3H)Thymidine incorporation, effect of fragment (experimental value/control value)",[5],1.96 ± 0.14
"hPTH(31-47): PTH fragment 31-47, human source; comparative example (VHNFVALGAPLAPRDAG; Parathyroid hormone; UniProt P01270 62-78, looked up, fragment) [reference compound]",[^3 H]thymidine incorporation,"[2]; 5.3 × 10^-5 mol/l, control 139 ± 6",176 ± 8 cpm
same,E/C,[2]; 5.3 × 10^-5 mol/l,1.27
same,[^3 H]thymidine incorporation,"[2]; 5.3 × 10^-6 mol/l, control 139 ± 6",178 ± 35 cpm
same,E/C,[2]; 5.3 × 10^-6 mol/l,1.28
same,[^3 H]thymidine incorporation,"[2]; 5.3 × 10^-7 mol/l, control 139 ± 6",178 ± 24 cpm
same,E/C,[2]; 5.3 × 10^-7 mol/l,1.28
same,[^3 H]thymidine incorporation,"[2]; 5.3 × 10^-8 mol/l, control 139 ± 6",165 ± 20 cpm
same,E/C,[2]; 5.3 × 10^-8 mol/l,1.19
same,increase of CK activity (in words),[4],inactive
"hPTH(28-39): PTH fragment 28-39, human source (LQDVHNFVALGA; Parathyroid hormone; UniProt P01270 59-70, looked up, fragment)",[^3 H]thymidine incorporation,"[2]; 7.6 × 10^-4 mol/l, control 324 ± 18",387 ± 41 cpm
same,E/C,[2]; 7.6 × 10^-4 mol/l,1.19
same,[^3 H]thymidine incorporation,"[2]; 7.6 × 10^-5 mol/l, control 324 ± 18",399 ± 47 cpm
same,E/C,[2]; 7.6 × 10^-5 mol/l,1.23
same,[^3 H]thymidine incorporation,"[2]; 7.6 × 10^-6 mol/l, control 324 ± 18",324 ± 45 cpm
same,E/C,[2]; 7.6 × 10^-6 mol/l,1.00
same,[^3 H]thymidine incorporation,"[2]; 7.6 × 10^-7 mol/l, control 324 ± 18",473 ± 74 cpm
same,E/C,[2]; 7.6 × 10^-7 mol/l,1.46
same,[^3 H]thymidine incorporation,"[2]; 7.6 × 10^-8 mol/l, control 324 ± 18",319 ± 39 cpm
same,E/C,[2]; 7.6 × 10^-8 mol/l,0.97
"hPTH(32-47): PTH fragment 32-47 as printed; at this place probably a misprint of hPTH(28-47) (HNFVALGAPLAPRDAG; Parathyroid hormone; UniProt P01270 63-78, looked up, fragment)",increase of CK activity (in words),[4],maximally active
"hPTH(30-47): PTH fragment 30-47, human source; comparative example (DVHNFVALGAPLAPRDAG; Parathyroid hormone; UniProt P01270 61-78, looked up, fragment) [reference compound]",[^3 H]thymidine incorporation,"[2]; 5.1 × 10^-5 mol/l, control 139 ± 6",248 ± 31 cpm
same,E/C,[2]; 5.1 × 10^-5 mol/l,1.78
same,[^3 H]thymidine incorporation,"[2]; 5.1 × 10^-6 mol/l, control 139 ± 6",193 ± 20 cpm
same,E/C,[2]; 5.1 × 10^-6 mol/l,1.39
same,[^3 H]thymidine incorporation,"[2]; 5.1 × 10^-7 mol/l, control 139 ± 6",222 ± 19 cpm
same,E/C,[2]; 5.1 × 10^-7 mol/l,1.60
same,[^3 H]thymidine incorporation,"[2]; 5.1 × 10^-8 mol/l, control 139 ± 6",169 ± 23 cpm
same,E/C,[2]; 5.1 × 10^-8 mol/l,1.22
same,"Cyclic AMP concentration, effect of fragment (experimental value/control value)",[3],1.00 ± 0.22
same,"CK specific activity, effect of fragment (experimental value/control value)",[4],1.27 ± 0.03
same,increase of CK activity (in words),[4],slightly stimulatory
same,"[3H)Thymidine incorporation, effect of fragment (experimental value/control value)",[5],1.86 ± 0.18
"hPTH(24-47): PTH fragment 24-47 as printed; probably a misprint of hPTH(34-47) (LRKKLQDVHNFVALGAPLAPRDAG; Parathyroid hormone; UniProt P01270 55-78, looked up, fragment)",stimulation of CK activity (in words),[6],stimulated by all of the cell fragments tested except
same,stimulation of DNA synthesis (in words),[7],stimulated by all of the cell fragments tested except
"hPTH(33-47): PTH fragment 33-47, human source; inactive fragment (NFVALGAPLAPRDAG; Parathyroid hormone; UniProt P01270 64-78, looked up, fragment) [reference compound]",increase of CK activity (in words),[4],inactive
"hPTH(29-39): PTH fragment 29-39 as printed; probably a misprint of hPTH(25-39) (QDVHNFVALGA; Parathyroid hormone; UniProt P01270 60-70, looked up, fragment)",increase of CK activity (in words),[4],maximally active
